Measured values published in patent publication US9932381B2, “Exendin-4 derivatives as selective glucagon receptor agonists” (priority 2014, dated 2018).
Non-standard residues stand in square brackets, D forms with d. Residues, ends and D or L forms follow the SMILES beside them. Ala(4-thiazolyl) = N[C@@H](Cc1cscn1)C(=O)O; Chg = N[C@H](C(=O)O)C1CCCCC1; Phg = N[C@H](C(=O)O)c1ccccc1; Nle = CCCC[C@H](N)C(=O)O

Tests used:
[1] = target: T1, human glucagon receptor (hGLUC R) (Homo sapiens, UniProt P47871); experiment: cAMP response (HTRF) of HEK-293 cells stably expressing human glucagon receptor; format: cell-based; conditions: Table 4; read-out: EC50 hGLUC R
T1 construct: expressed in transfected cells; host or cells: HEK-293
Method: (§1) cAMP content of cells was determined using a kit from Cisbio Corp. (cat. no. 62AM4PEC) based on HTRF (Homogenous Time Resolved Fluorescence). For preparation, cells were split into T175 culture flasks and grown overnight to near confluency in medium (DMEM/10% FBS). Medium was then removed and cells washed with PBS lacking calcium and magnesium, followed by proteinase treatment with accutase (Sigma-Aldrich cat. no. A6964). Detached cells were washed and resuspended in assay buffer (1×HBSS; 20 mM HEPES, 0.1% BSA, 2 mM IBMX) and cellular density determined. They were then diluted to 400000 cells/ml and 25 μl-aliquots dispensed into the wells of 96-well plates. For measurement, 25 μl of test compound in assay buffer was added to the wells, followed by incubation for 30 minutes at room temperature.

[2] = target: T2, human GLP-1 receptor (hGLP-1 R) (Homo sapiens, UniProt P43220); experiment: cAMP response (HTRF) of HEK-293 cells stably expressing human GLP-1 receptor; format: cell-based; conditions: Table 4
T2 construct: expressed in transfected cells; host or cells: HEK-293
Method: as §1, with “temperature. After addition of HTRF reagents diluted in lysis buffer (kit components), the plates were incubated for 1 hr, followed by measurement of the fluorescence ratio at 665/620 nm. In vitro potency of agonists was quantified by determining the concentrations that caused 50% activation of maximal response (EC50).” for “temperature.”

[3] = Solubility testing of exendin-4 derivatives (HPLC-UV of supernatant); format: physicochemical; conditions: 2 h, pH 7.4
Method: Prior to the testing of solubility and stability of a peptide batch, its content was determined. Therefore, two parameters were investigated, its purity (HPLC-UV) and the amount of salt load of the batch (ion chromatography).
HPLC-UV was performed after 2 h of gentle agitation from the supernatant, which was obtained by 20 min of centrifugation at 4000 rpm.

T2 sequence (P43220 24-463): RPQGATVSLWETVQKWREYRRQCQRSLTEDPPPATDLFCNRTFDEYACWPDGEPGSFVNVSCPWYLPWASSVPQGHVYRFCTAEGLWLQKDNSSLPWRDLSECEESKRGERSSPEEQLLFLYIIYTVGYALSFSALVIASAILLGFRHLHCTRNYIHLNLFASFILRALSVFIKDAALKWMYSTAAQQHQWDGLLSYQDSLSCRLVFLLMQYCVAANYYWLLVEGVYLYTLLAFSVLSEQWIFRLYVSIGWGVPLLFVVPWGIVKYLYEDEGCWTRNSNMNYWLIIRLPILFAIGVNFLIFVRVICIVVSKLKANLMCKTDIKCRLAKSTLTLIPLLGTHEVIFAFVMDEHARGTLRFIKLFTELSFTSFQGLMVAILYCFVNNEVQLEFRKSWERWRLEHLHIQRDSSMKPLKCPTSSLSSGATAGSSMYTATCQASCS
T1 sequence (P47871 26-477): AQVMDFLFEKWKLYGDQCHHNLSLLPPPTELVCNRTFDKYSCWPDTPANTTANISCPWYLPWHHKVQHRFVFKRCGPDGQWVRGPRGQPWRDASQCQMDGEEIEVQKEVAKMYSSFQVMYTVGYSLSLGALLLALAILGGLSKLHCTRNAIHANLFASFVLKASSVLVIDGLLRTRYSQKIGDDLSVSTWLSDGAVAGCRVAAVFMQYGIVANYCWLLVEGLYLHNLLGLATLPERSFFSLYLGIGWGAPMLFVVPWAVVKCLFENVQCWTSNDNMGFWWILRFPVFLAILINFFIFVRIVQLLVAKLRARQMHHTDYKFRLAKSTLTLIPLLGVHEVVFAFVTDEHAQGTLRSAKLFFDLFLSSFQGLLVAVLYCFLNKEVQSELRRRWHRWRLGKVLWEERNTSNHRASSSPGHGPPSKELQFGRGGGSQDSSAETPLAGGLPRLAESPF

SMILES | EC50 [1] | EC50 [2] | Solubility (pH7.4) [mg/ml] [3]
CC[C@H](C)[C@H](NC(=O)[C@H](Cc1ccccc1)NC(=O)[C@H](CCC(=O)O)NC(=O)[C@H](CCC(N)=O)NC(=O)[C@H](C)NC(=O)[C@H](CCCNC(=N)N)NC(=O)[C@H](CCCNC(=N)N)NC(=O)[C@H](CO)NC(=O)[C@H](CCC(=O)O)NC(=O)[C@H](CC(C)C)NC(=O)[C@H](CCC(N)=O)NC(=O)[C@H](CCCCN)NC(=O)[C@H](CO)NC(=O)[C@@H](NC(=O)[C@H](CC(=O)O)NC(=O)[C@H](CO)NC(=O)[C@@H](NC(=O)[C@H](Cc1ccccc1)NC(=O)[C@@H](NC(=O)CNC(=O)[C@H](CCC(N)=O)NC(=O)[C@H](CO)NC(=O)[C@@H](N)Cc1cscn1)[C@@H](C)O)[C@@H](C)O)C(C)C)C(=O)N[C@@H](CCC(=O)O)C(=O)N[C@@H](Cc1c[nH]c2ccccc12)C(=O)N[C@@H](CC(C)C)C(=O)N[C@@H](CC(C)C)C(=O)N[C@@H](C)C(=O)N[C@H](C(=O)NCC(=O)N1CCC[C@H]1C(=O)N[C@@H](CCC(=O)O)C(=O)N[C@@H](CO)C(=O)NCC(=O)N[C@@H](C)C(=O)N1CCC[C@H]1C(=O)N1CCC[C@H]1C(=O)N1CCC[C@H]1C(=O)N[C@@H](CO)C(=O)O)[C@@H](C)O [SEQ ID NO 7, Tza-SQGTFTSDVSKQLESRRAQEFIEWLLATGPESGAPPPS-OH] (H-[Ala(4-thiazolyl)]SQGTFTSDVSKQLESRRAQEFIEWLLATGPESGAPPPS-OH; N-terminus assumed) | 0.0024 nM | 4.19 nM | –
CC[C@H](C)[C@H](NC(=O)[C@H](Cc1ccccc1)NC(=O)[C@H](CCC(=O)O)NC(=O)[C@H](CCC(N)=O)NC(=O)[C@H](C)NC(=O)[C@H](CCCNC(=N)N)NC(=O)[C@H](CCCNC(=N)N)NC(=O)[C@H](CO)NC(=O)[C@H](CCC(=O)O)NC(=O)[C@H](CC(C)C)NC(=O)[C@H](CCC(N)=O)NC(=O)[C@H](CCCCN)NC(=O)[C@H](CO)NC(=O)[C@@H](NC(=O)[C@H](CC(=O)O)NC(=O)[C@H](CO)NC(=O)[C@@H](NC(=O)[C@H](Cc1ccccc1)NC(=O)[C@@H](NC(=O)CNC(=O)[C@H](CCC(N)=O)NC(=O)[C@H](CO)NC(=O)[C@@H](N)Cc1cscn1)[C@@H](C)O)[C@@H](C)O)[C@@H](C)CC)C(=O)N[C@@H](CCC(=O)O)C(=O)N[C@@H](Cc1c[nH]c2ccccc12)C(=O)N[C@@H](CC(C)C)C(=O)N[C@@H](CC(C)C)C(=O)N[C@@H](C)C(=O)N[C@H](C(=O)NCC(=O)N1CCC[C@H]1C(=O)N[C@@H](CCC(=O)O)C(=O)N[C@@H](CO)C(=O)NCC(=O)N[C@@H](C)C(=O)N1CCC[C@H]1C(=O)N1CCC[C@H]1C(=O)N1CCC[C@H]1C(=O)N[C@@H](CO)C(=O)O)[C@@H](C)O [SEQ ID NO 8, Tza-SQGTFTSDISKQLESRRAQEFIEWLLATGPESGAPPPS-OH] | 0.0022 nM | 5.8 nM | –
CC[C@H](C)[C@H](NC(=O)[C@H](Cc1ccccc1)NC(=O)[C@H](CCC(=O)O)NC(=O)[C@H](CCC(N)=O)NC(=O)[C@H](C)NC(=O)[C@H](CCCNC(=N)N)NC(=O)[C@H](CCCNC(=N)N)NC(=O)[C@H](CO)NC(=O)[C@H](CCC(=O)O)NC(=O)[C@H](CC(C)C)NC(=O)[C@H](CCC(N)=O)NC(=O)[C@H](CCCCN)NC(=O)[C@H](CO)NC(=O)[C@@H](NC(=O)[C@H](CC(=O)O)NC(=O)[C@H](CO)NC(=O)[C@@H](NC(=O)[C@H](Cc1ccccc1)NC(=O)[C@@H](NC(=O)CNC(=O)[C@H](CCC(N)=O)NC(=O)[C@H](CO)NC(=O)[C@@H](N)Cc1cscn1)[C@@H](C)O)[C@@H](C)O)c1ccccc1)C(=O)N[C@@H](CCC(=O)O)C(=O)N[C@@H](Cc1c[nH]c2ccccc12)C(=O)N[C@@H](CC(C)C)C(=O)N[C@@H](CC(C)C)C(=O)N[C@@H](C)C(=O)N[C@H](C(=O)NCC(=O)N1CCC[C@H]1C(=O)N[C@@H](CCC(=O)O)C(=O)N[C@@H](CO)C(=O)NCC(=O)N[C@@H](C)C(=O)N1CCC[C@H]1C(=O)N1CCC[C@H]1C(=O)N1CCC[C@H]1C(=O)N[C@@H](CO)C(=O)O)[C@@H](C)O [SEQ ID NO 10, Tza-S-Q-G-T-F-T-S-D-Phg-SKQLESRRAQEFIEWLLATGPESGAPPPS-OH] (H-[Ala(4-thiazolyl)]SQGTFTSD[Phg]SKQLESRRAQEFIEWLLATGPESGAPPPS-OH; N-terminus assumed) | 0.006 nM | 45 nM | –
CC[C@H](C)[C@H](NC(=O)[C@H](Cc1ccccc1)NC(=O)[C@H](CCC(=O)O)NC(=O)[C@H](CCC(N)=O)NC(=O)[C@H](C)NC(=O)[C@H](CCCNC(=N)N)NC(=O)[C@H](CCCNC(=N)N)NC(=O)[C@H](CO)NC(=O)[C@H](CCC(=O)O)NC(=O)[C@H](CC(C)C)NC(=O)[C@H](CCC(N)=O)NC(=O)[C@H](CCCCN)NC(=O)[C@H](CO)NC(=O)[C@H](CC(C)C)NC(=O)[C@H](CC(=O)O)NC(=O)[C@H](CO)NC(=O)[C@@H](NC(=O)[C@H](Cc1ccccc1)NC(=O)[C@@H](NC(=O)CNC(=O)[C@H](CCC(N)=O)NC(=O)[C@H](CO)NC(=O)[C@@H](N)Cc1cscn1)[C@@H](C)O)[C@@H](C)O)C(=O)N[C@@H](CCC(=O)O)C(=O)N[C@@H](Cc1c[nH]c2ccccc12)C(=O)N[C@@H](CC(C)C)C(=O)N[C@@H](CC(C)C)C(=O)N[C@@H](C)C(=O)N[C@H](C(=O)NCC(=O)N1CCC[C@H]1C(=O)N[C@@H](CCC(=O)O)C(=O)N[C@@H](CO)C(=O)NCC(=O)N[C@@H](C)C(=O)N1CCC[C@H]1C(=O)N1CCC[C@H]1C(=O)N1CCC[C@H]1C(=O)N[C@@H](CO)C(=O)O)[C@@H](C)O [SEQ ID NO 12, Tza-SQGTFTSDLSKQLESRRAQEFIEWLLATGPESGAPPPS-OH] (H-[Ala(4-thiazolyl)]SQGTFTSDLSKQLESRRAQEFIEWLLATGPESGAPPPS-OH) | 0.001 nM | 20 nM | –
CCCC[C@H](NC(=O)[C@H](CCC(N)=O)NC(=O)[C@H](CCCCN)NC(=O)[C@H](CO)NC(=O)[C@@H](NC(=O)[C@H](CC(=O)O)NC(=O)[C@H](CO)NC(=O)[C@@H](NC(=O)[C@H](Cc1ccccc1)NC(=O)[C@@H](NC(=O)CNC(=O)[C@H](CCC(N)=O)NC(=O)[C@H](CO)NC(=O)[C@@H](N)Cc1cscn1)[C@@H](C)O)[C@@H](C)O)C1CCCCC1)C(=O)N[C@@H](CCC(=O)O)C(=O)N[C@@H](CO)C(=O)N[C@@H](CCCNC(=N)N)C(=O)N[C@@H](CCCNC(=N)N)C(=O)N[C@@H](C)C(=O)N[C@@H](CCC(N)=O)C(=O)N[C@@H](CC(=O)O)C(=O)N[C@@H](Cc1ccccc1)C(=O)N[C@H](C(=O)N[C@@H](CCC(=O)O)C(=O)N[C@@H](Cc1c[nH]c2ccccc12)C(=O)N[C@@H](CC(C)C)C(=O)N[C@@H](CC(C)C)C(=O)N[C@@H](C)C(=O)N[C@H](C(=O)NCC(=O)N1CCC[C@H]1C(=O)N[C@@H](CCC(=O)O)C(=O)N[C@@H](CO)C(=O)NCC(=O)N[C@@H](C)C(=O)N1CCC[C@H]1C(=O)N1CCC[C@H]1C(=O)N1CCC[C@H]1C(=O)N[C@@H](CO)C(=O)O)[C@@H](C)O)[C@@H](C)CC [SEQ ID NO 20, Tza-S-Q-G-T-F-T-S-D-Chg-S-K-Q-Nle-ESRRAQDFIEWLLATGPESGAPPPS-OH] (H-[Ala(4-thiazolyl)]SQGTFTSD[Chg]SKQ[Nle]ESRRAQDFIEWLLATGPESGAPPPS-OH; N-terminus assumed) | – | – | >10.0 mg/ml
